Values quoted from earlier work as cited in patent US12597519B2, “Methods for characterizing and treating a cancer type using cancer images” (TESARO, INC., priority 2019, dated 2026).

How the values were obtained:
[1] = system: cancer cell lines silenced for BRCA-1 or BRCA-2, or carrying BRCA-1 or BRCA-2 mutations; conditions: BRCA-defective cells
[2] = system: platinum-sensitive relapsed ovarian cancer

| SMILES | mechanism of antiproliferative activity [1] | overall survival benefit ([2]; interim analysis, intent to treat populations) | outcome in subset of patients who had BRCA mutations ([2]; planned analysis, BRCA mutation subset) |
| --- | --- | --- | --- |
| Cc1ccc(S(=O)(=O)O)cc1.NC(=O)c1cccc2cn(-c3ccc([C@@H]4CCCNC4)cc3)nc12 [Niraparib, (3S)-3-[4-{7-(aminocarbonyl)-2H-indazol-2-yl}phenyl]piperidine] | cell cycle arrest in G2/M followed by apoptosis | – | – |
| O=C(c1cc(Cc2n[nH]c(=O)c3ccccc23)ccc1F)N1CCN(C(=O)C2CC2)CC1 [olaparib, 4-[(3-{[4-(cyclopropylcarbonyl)piperazin-1-yl]carbonyl}-4-fluorophenyl)methyl]phthalazin-1(2H)-one] | – | unlikely to translate into an overall survival benefit | clear advantage |
